Counter-ions that a name gives are not always drawn. Like-named read-outs stand apart in the source and are kept apart here.
Assays:
Format in all cases: biochemical
[1] = target: TYK2 (Homo sapiens, UniProt P29597); assay: TYK2 kinase inhibition (Table A1)
[2] = target: T1, Recombinant Human Anaplastic Lymphoma Kinase (Homo sapiens, UniProt Q9UM73); assay: ALK HTRF kinase assay
T1 construct: purchased Invitrogen, Carlsbad, Calif
Outline: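 IC50 was obtained from a logistic fit of signal versus log inhibitor concentration, using pre- and post-transition baselines and a Hill slope. The signal reported tyrosine phosphorylation of a biotinylated peptide by recombinant human kinase, detected as Eu-to-APC energy transfer.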

[3] = target: T2, human JAK1 (a.a. 837-1142) (Homo sapiens, UniProt P23458); assay: In vitro JAK kinase assay (HTRF, phosphorylation of a biotinylated peptide), JAK1; conditions: read-out: JAK1 IC50
T2 construct: human JAK1 (a.a. 837-1142); His tag (N); made in house; host or cells: insect cells (baculovirus)
Outline: (§1)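 Kinase reactions ran at room temperature for 1 h with ATP matched per isoform (JAK1 90 μM, JAK2 30 μM, JAK3 3 μM). After an EDTA stop, the phosphorylated biotin-peptide was read by HTRF using Eu-Py20 and SA-APC after 40 min binding.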

[4] = target: T3, human JAK2 (a.a. 828-1132) (Homo sapiens, UniProt O60674); assay: In vitro JAK kinase assay (HTRF, phosphorylation of a biotinylated peptide), JAK2
T3 construct: JAK2 (a.a. 828-1132); His tag (N); made in house; host or cells: insect cells (baculovirus)
Outline: as §1

[5] = target: T4, human JAK3 (a.a. 781-1124) (Homo sapiens, UniProt P52333); assay: In vitro JAK kinase assay (HTRF, phosphorylation of a biotinylated peptide), JAK3
T4 construct: JAK3 (a.a. 781-1124); His tag (N); made in house; host or cells: insect cells (baculovirus)
Outline: as §1

[6] = compound at 500 nM or 1 mM, 90 μM ATP
[7] = method AA1 (90 μM ATP) or AA2 (1000 μM ATP), not stated per value
[8] = method AA1 (30 μM ATP) or AA2 (1000 μM ATP), not stated per value
[9] = method AA1 (3 μM ATP) or AA2 (1000 μM ATP), not stated per value
[10] = Table B1, cells without percent sign

T2 sequence (P23458 849-1154): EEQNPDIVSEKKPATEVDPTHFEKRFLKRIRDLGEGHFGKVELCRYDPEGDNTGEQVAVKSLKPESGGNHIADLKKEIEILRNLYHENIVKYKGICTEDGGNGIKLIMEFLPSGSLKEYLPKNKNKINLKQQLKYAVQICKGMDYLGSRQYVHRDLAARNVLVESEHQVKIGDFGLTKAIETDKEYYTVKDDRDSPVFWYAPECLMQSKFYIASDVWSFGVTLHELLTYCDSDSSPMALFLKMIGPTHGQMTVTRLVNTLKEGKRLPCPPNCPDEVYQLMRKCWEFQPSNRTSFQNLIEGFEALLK
T1 sequence (Q9UM73 19-1620): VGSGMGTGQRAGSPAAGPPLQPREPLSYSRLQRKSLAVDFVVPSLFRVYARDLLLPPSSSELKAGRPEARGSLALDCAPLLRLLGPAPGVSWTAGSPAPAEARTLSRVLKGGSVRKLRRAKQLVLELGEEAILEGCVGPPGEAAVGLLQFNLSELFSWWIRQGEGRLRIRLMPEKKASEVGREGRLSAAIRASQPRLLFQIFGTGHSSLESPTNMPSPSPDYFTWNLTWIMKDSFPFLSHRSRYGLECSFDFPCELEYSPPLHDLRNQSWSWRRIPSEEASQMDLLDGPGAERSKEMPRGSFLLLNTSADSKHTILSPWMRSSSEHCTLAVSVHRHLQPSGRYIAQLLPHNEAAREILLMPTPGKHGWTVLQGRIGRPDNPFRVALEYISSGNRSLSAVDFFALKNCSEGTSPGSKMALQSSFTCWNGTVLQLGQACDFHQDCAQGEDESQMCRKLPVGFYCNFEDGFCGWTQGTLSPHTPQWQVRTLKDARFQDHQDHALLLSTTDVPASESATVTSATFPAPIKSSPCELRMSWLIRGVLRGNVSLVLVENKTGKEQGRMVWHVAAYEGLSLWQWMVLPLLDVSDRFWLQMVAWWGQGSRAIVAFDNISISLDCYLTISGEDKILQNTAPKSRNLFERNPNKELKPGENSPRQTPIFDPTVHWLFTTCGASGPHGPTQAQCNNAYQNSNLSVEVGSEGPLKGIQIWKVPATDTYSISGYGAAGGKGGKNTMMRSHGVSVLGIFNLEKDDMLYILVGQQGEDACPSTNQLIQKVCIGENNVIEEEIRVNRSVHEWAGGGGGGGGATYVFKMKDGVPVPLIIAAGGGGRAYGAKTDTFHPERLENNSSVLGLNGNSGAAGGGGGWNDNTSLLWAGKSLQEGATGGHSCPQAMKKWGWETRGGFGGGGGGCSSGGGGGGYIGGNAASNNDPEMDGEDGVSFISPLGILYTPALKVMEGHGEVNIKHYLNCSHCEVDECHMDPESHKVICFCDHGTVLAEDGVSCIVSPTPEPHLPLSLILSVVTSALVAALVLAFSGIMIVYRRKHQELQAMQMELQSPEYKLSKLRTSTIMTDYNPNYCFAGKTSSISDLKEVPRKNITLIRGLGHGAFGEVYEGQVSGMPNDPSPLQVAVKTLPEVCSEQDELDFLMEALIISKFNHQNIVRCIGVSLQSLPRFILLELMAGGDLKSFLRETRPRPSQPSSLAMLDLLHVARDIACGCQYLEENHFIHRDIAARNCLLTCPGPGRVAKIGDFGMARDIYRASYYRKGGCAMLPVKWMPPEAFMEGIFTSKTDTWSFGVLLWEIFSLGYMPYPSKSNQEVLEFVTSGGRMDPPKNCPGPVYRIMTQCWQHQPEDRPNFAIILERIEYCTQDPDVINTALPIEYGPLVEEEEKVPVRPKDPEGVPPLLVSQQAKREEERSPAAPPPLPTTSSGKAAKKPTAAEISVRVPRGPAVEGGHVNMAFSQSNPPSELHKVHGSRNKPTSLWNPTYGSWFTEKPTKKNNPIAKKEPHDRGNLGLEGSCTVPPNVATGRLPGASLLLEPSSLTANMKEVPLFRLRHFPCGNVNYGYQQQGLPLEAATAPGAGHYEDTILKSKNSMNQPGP
Sequence of TYK2 (P29597 whole entry): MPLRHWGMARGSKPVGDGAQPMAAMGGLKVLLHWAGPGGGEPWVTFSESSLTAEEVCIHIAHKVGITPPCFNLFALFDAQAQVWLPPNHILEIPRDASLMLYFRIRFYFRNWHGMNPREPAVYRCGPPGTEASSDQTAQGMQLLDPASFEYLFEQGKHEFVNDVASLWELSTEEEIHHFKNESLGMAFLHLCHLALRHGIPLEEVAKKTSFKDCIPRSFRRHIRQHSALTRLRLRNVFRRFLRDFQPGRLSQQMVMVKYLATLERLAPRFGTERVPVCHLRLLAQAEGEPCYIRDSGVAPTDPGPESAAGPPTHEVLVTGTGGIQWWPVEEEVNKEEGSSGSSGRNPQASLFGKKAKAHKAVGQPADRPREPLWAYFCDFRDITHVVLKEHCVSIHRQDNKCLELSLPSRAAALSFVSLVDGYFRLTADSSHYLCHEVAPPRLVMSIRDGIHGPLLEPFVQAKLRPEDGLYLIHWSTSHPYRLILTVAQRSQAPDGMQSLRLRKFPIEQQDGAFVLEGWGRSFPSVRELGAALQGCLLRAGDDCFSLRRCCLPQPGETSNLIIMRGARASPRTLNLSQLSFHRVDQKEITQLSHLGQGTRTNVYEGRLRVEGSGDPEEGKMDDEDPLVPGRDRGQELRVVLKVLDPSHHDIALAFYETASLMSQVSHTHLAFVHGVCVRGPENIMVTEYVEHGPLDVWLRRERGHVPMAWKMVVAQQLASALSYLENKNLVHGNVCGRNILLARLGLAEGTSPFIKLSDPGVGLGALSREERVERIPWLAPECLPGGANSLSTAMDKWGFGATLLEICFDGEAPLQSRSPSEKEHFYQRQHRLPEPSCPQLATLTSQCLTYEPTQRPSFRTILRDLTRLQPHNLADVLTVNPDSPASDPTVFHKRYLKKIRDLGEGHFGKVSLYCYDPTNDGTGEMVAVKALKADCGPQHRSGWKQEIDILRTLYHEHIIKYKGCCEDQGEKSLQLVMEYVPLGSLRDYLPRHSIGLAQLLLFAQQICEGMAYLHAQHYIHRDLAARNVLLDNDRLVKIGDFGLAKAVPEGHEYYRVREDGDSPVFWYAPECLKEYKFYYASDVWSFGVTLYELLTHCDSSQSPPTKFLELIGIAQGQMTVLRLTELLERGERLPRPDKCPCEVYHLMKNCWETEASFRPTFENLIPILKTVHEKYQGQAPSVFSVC
T3 sequence (O60674 828-1132): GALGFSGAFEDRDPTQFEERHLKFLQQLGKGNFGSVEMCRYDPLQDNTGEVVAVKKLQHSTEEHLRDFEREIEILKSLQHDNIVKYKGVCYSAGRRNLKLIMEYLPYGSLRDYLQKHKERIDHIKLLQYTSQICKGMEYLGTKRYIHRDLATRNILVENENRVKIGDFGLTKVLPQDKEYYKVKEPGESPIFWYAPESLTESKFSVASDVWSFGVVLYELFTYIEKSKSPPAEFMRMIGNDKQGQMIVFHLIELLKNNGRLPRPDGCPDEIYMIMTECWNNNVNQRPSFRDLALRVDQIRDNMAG
T4 sequence (P52333 781-1124): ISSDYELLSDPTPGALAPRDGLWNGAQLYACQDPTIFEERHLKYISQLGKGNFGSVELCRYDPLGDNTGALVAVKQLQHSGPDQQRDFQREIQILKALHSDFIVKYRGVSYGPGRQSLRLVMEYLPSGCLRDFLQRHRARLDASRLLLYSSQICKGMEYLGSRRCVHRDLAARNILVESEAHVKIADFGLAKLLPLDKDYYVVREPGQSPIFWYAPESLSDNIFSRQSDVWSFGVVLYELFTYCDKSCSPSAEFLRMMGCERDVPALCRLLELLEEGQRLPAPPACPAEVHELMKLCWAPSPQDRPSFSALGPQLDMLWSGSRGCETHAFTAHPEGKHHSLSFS

Structure (SMILES) | IC50 [1] [nM] | ALK % of inhibition at a concentration of 500 nM or 1 mM [2, 6] [%] | IC50 [3, 7] [nM] | IC50 [4, 8] [nM] | IC50 [5, 9] [nM] | further results
O=C(CC1CCN(C(=O)c2c[nH]nn2)CC1)Nc1ccc2cc1CCc1cncc(c1)Nc1ncc(Cl)c(n1)N2 [Example A137, N-[6-Chloro-2,4,8,18,22-pentaazatetracyclo[14.3.1.1(3,7).1(9,13)]docosa-1(20),3(22),4,6,9(21),10,12,16,18-nonaen-12-yl]-2-[1-(1H-1,2,3-triazol-4-ylcarbonyl)piperidin-4-yl]acetamide bis(trifluoroacetate)] | 1 | 54 | 0.6 | 3 | 41 | –
O=C(Nc1ccc2cc1CCc1cccc(c1)Nc1ncc(Cl)c(n1)N2)[C@@H]1CCCN1C(=O)Nc1ccccc1 [Example A69, (2S)—N(2)-[6-Chloro-2,4,8,22-tetraazatetracyclo[14.3.1.1(3,7).1(9,13)]docosa-1(20),3(22),4,6,9(21),10,12,16,18-nonaen-12-yl]-N(1)-phenylpyrrolidine-1,2-dicarboxamide trifluoroacetate] | 39 | 27 | 41 | 7.7 | 16 | –
O=C(Nc1ccc2cc1CCc1cccc(c1)Nc1ncc(Cl)c(n1)N2)c1ccc(Cl)cc1 [Example B43, 4-Chloro-N-[6-chloro-2,4,8,22-tetraazatetracyclo[14.3.1.1(3,7).1(9,13)]docosa-1(20),3(22),4,6,9(21),10,12,16,18-nonaen-12-yl]benzamide hydrochloride] | – | – | – | – | – | IC50 ([1]; Table B1): 2.9 nM; IC50 [2, 10]: 170 nM; IC50 ([3]; Table B1): 0.79 nM; IC50 ([4]; Table B1): 1.1 nM; IC50 ([5]; Table B1): 6.7 nM
O=C1NCc2cccc(c2)Nc2ncc(Cl)c(n2)Nc2cccc1c2 [Example C4, 6-Chloro-2,4,8,15,23-pentaazatetracyclo[15.3.1.1(3,7).1(9,13)]tricosa-1(21),3(23),4,6,9(22),10,12,17,19-nonaen-14-one] | > 1000 | – | – | – | – | IC50 [2]: > 1000 nM; IC50 [3]: 361 nM; IC50 [4]: 350 nM; IC50 [5]: 317 nM
Clc1cnc2nc1Nc1cccc(c1)OCCOc1cccc(c1)N2 [Example D10, 6-Chloro-14,17-dioxa-2,4,8,24-tetraazatetracyclo[16.3.1.1(3,7).1(9,13)]tetracosa-1(22),3(24),4,6,9(23),10,12,18,20-nonaene trifluoroacetate] | – | – | – | – | – | IC50 ([1]; Table D1): 8.1 nM; IC50 ([2]; Table D1, 90 μM ATP): 791 nM; IC50 ([3]; Table D1): 8.2 nM; IC50 ([4]; Table D1): 2.4 nM; IC50 ([5]; Table D1): 10 nM
CC(C)(C)C(=O)N1CCC(CC(=O)Nc2ccc3cc2CCc2cncc(c2)Nc2ncc(Cl)c(n2)N3)CC1 [Example A112, N-[6-Chloro-2,4,8,18,22-pentaazatetracyclo[14.3.1.1(3,7).1(9,13)]docosa-1(20),3(22),4,6,9(21),10,12,16,18-nonaen-12-yl]-2-[1-(2,2-dimethylpropanoyl)piperidin-4-yl]acetamide bis(trifluoroacetate)] | 61 | 20 | 8 | 38 | 239 | –
O=C(CC1CCN(c2ncccn2)CC1)Nc1ccc2cc1CCc1cncc(c1)Nc1ncc(Cl)c(n1)N2 [Example A172, N-[6-Chloro-2,4,8,18,22-pentaazatetracyclo[14.3.1.1(3,7).1(9,13)]docosa-1(20),3(22),4,6,9(21),10,12,16,18-nonaen-12-yl]-2-(1-pyrimidin-2-ylpiperidin-4-yl)acetamide tris(trifluoroacetate)] | 237 | 28 | 11 | 199 | > 1000 | –
CC(C)N1CCC(CC(=O)Nc2ccc3cc2CCc2cncc(c2)Nc2ncc(Cl)c(n2)N3)CC1 [Example A140, N-[6-Chloro-2,4,8,18,22-pentaazatetracyclo[14.3.1.1(3,7).1(9,13)]docosa-1(20),3(22),4,6,9(21),10,12,16,18-nonaen-12-yl]-2-(1-isopropylpiperidin-4-yl)acetamide tris(trifluoroacetate)] | 68 | 18 | 38 | 46 | 117 | –
O=C(Nc1ccc2cc1CCc1cccc(c1)Nc1ncc(Cl)c(n1)N2)C1CCN(C(=O)c2ccc3c(c2)OCO3)CC1 [Example A31, 1-(1,3-Benzodioxol-5-ylcarbonyl)-N-[6-chloro-2,4,8,22-tetraazatetracyclo[14.3.1.1(3,7).1(9,13)]docosa-1(20),3(22),4,6,9(21),10,12,16,18-nonaen-12-yl]piperidine-4-carboxamide trifluoroacetate] | 115 | 26 | 42 | 49 | 108 | –
N#Cc1c(F)cccc1N1CCC(CC(=O)Nc2ccc3cc2CCc2cncc(c2)Nc2ncc(Cl)c(n2)N3)CC1 [Example A234, N-[6-Chloro-2,4,8,18,22-pentaazatetracyclo[14.3.1.1(3,7).1(9,13)]docosa-1(20),3(22),4,6,9(21),10,12,16,18-nonaen-12-yl]-2-[1-(2-cyano-3-fluorophenyl)piperidin-4-yl]acetamide tris(trifluoroacetate)] | 72 | 13 | 1.5 | 80 | > 400 | –
O=C(CC1CCN(C(=O)Nc2ccccc2)CC1)Nc1ccc2cc1CCc1cccc(c1)Nc1ncc(Cl)c(n1)N2 [Example A58, 4-(2-{[6-Chloro-2,4,8,22-tetraazatetracyclo[14.3.1.1(3,7).1(9,13)]docosa-1(20),3(22),4,6,9(21),10,12,16,18-nonaen-12-yl]amino}-2-oxoethyl)-N-phenylpiperidine-1-carboxamide trifluoroacetate] | 9.9 | 38 | 0.2 | 1.1 | 22 | –
N#Cc1cccc(C(=O)Nc2ccc3cc2CCc2cccc(c2)Nc2ncc(Cl)c(n2)N3)c1 [Example B65, N-[6-Chloro-2,4,8,22-tetraazatetracyclo[14.3.1.1(3,7).1(9,13)]docosa-1(20), 3(22),4,6,9(21),10,12,16,18-nonaen-12-yl]-3-cyanobenzamide trifluoroacetate] | – | – | – | – | – | IC50 ([1]; Table B1): 5.9 nM; IC50 [2, 10]: 290 nM; IC50 ([3]; Table B1): 3.4 nM; IC50 ([4]; Table B1): 1.8 nM; IC50 ([5]; Table B1): 8.8 nM
Cc1ncoc1C(=O)Nc1cc2cc(c1)Nc1nc(ncc1Cl)Nc1cccc(c1)CC2 [Example B210, N-[6-Chloro-2,4,8,22-tetraazatetracyclo[14.3.1.1(3,7).1(9,13)]docosa-1(20),3(22),4,6,9(21),10,12,16,18-nonaen-11-yl]-4-methyl-1,3-oxazole-5-carboxamide trifluoroacetate] | – | – | – | – | – | IC50 ([1]; Table B1): 357 nM; IC50 [2, 10]: > 1000 nM; IC50 ([3]; Table B1): 62 nM; IC50 ([4]; Table B1): 42 nM; IC50 ([5]; Table B1): 76 nM
CN(C(=O)Nc1ccc2cc1CCc1cncc(c1)Nc1ncc(Cl)c(n1)N2)[C@H]1CCNC1 [Example B288, N′-[6-Chloro-2,4,8,18,22-pentaazatetracyclo[14.3.1.1(3,7).1(9,13)]docosa-1(20),3(22),4,6,9(21),10,12,16,18-nonaen-12-yl]-N-methyl-N-[(3S)-pyrrolidin-3-yl]urea tris(trifluoroacetate)] | – | – | – | – | – | IC50 ([1]; Table B1): > 200 nM; ALK % of inhibition at a concentration of 500 nM or 1 mM ([2]; compound at a concentration of 500 nM or 1 mM (not specified), cells shown as percentage): 18%; IC50 ([3]; Table B1): 42 nM; IC50 ([4]; Table B1): 180 nM; IC50 ([5]; Table B1): > 200 nM
